# Like-named read-outs stand apart in the source and are kept apart here.
# Key:
# [1] = target: T1, Biotinylated KRAS G12C protein (Homo sapiens, UniProt P01116, C118S/C51S/C80L/G12C); assay: SOS-catalyzed nucleotide exchange assay; type: biochemical; settings: apparent potency; preincubation time of 60 minutes prior to addition of SOS
# T1 construct: 183 amino acids; biotin on K10
# [2] = test system: NCI-H358 cells; assay: Cellular phospho-ERK assay; type: cell-based; settings: NCI-H358 cells, 2 hour incubation, ratio of p-Erk vs total Erk, read-out: IC50
# Procedure: NCI-H358 cells (ATCC® CRL-5807™) were cultured in T150 flask in growth medium (RPMI medium 1640-GlutaMAX™-1 (ThermoFisher Scientific 61870) containing 10% fetal bovine serum (ThermoFisher Scientific 10091148)). The cells were harvested in growth medium after TrypLE (ThermoFisher scientific 12604021) digestion and were seeded in 384-well collagen coated cell culture plate (Corning 356702) at a density of 15,000 cells/well, and incubated at 37° C., 5% CO2 overnight. The compound dose-response titrations were prepared and appropriate amounts of compounds were dispensed in 384-well intermediate plate using Echo 550 liquid handler. RPMI medium 1640-GlutaMAX™-I were added to the intermediate plate and transferred to 384-well cell culture plate, which was incubated at 37° C., 5% CO2 for 2 hours. After removal of medium from the plate, cells were lysed in lysis buffer from Alpha SureFire® Ultra™ Multiplex p-Erk and total Erk assay kit (PerkinElmer MPSU-PTERK) containing Halt™ Protease and Phosphotase inhibitor cocktail (ThermoFisher Scientific 78446) at room temperature with constant shaking at 300 rpm for 30 minutes. The cell lysates were then transferred to OptiPlate-384 plate (PerkinElmer 6005620) and the phosphorylation of Erk and total Erk levels were detected by Alpha SureFire Ultra Multiplex p-Erk kit (PerkinElmer MPSU-PTERK) following the manufacturer's protocol. Assay plates were read on an EnVision Multimode Plate Reader (PerkinElmer) and the ratio of p-Erk vs total Erk in each well was used as the final readout. Dose response curves were analyzed using a 4-parameter logistic model to calculate IC50 values using spotfire software.
# T1 sequence (P01116 with tags, fused parts or gaps isoform P01116-2 G12C/C51S/C80L/C118S): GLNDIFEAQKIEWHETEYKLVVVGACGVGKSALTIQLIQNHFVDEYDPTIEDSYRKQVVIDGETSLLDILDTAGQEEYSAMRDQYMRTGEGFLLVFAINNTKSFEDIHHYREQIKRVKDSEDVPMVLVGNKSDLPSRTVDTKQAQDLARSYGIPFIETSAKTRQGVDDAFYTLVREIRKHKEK
SMILES,IC50 [1],"IC50 ([2]; Homo sapiens, NCI-H358, 2 h)",IC50 [2]
"C=CC(=O)N1CCN(c2cc(C(=O)NCC3CCCNC3)nc3c2CCN(c2cccc4cccc(C)c24)C3)C[C@@H]1CC#N (mixture of isomers) [Compound 106, 4-((S)-4-acryloyl-3-(cyanomethyl)piperazin-1-yl)-7-(8-methylnaphthalen-1-yl)-N-(((R)-piperidin-3-yl)methyl)-5,6,7,8-tetrahydro-1,7-naphthyridine-2-carboxamide, as a mixture with 4-((S)-4-acryloyl-3-(cyanomethyl)piperazin-1-yl)-7-(8-methylnaphthalen-1-yl)-N-(((S)-piperidin-3-yl)methyl)-5,6,7,8-tetrahydro-1,7-naphthyridine-2-carboxamide]",33 nM,5240 nM,–
"C=CC(=O)N1CCN(c2cc(C(=O)N[C@H](C)CN(C)C)nc3c2CCN(c2c(Cl)c(C)cc4[nH]ncc24)C3)CC1 [Compound 83, (R)-4-(4-acryloylpiperazin-1-yl)-7-(5-chloro-6-methyl-1H-indazol-4-yl)-N-(1-(dimethylamino)propan-2-yl)-5,6,7,8-tetrahydro-1,7-naphthyridine-2-carboxamide]",90 nM,1600 nM,–
"C=CC(=O)N1CCN(c2cc(C(=O)N[C@H](C)CN(C)C)nc3c2CCN(c2cccc4cccc(C)c24)C3)C[C@@H]1CC#N [Compound 65, 4-((S)-4-acryloyl-3-(cyanomethyl)piperazin-1-yl)-N-((R)-1-(dimethylamino)propan-2-yl)-7-(8-methylnaphthalen-1-yl)-5,6,7,8-tetrahydro-1,7-naphthyridine-2-carboxamide]",2.1 nM,16 nM,–
"C=CC(=O)N1CCN(c2cc(C(=O)Nc3ccccc3CN)nc3c2CCN(c2cccc4cccc(C)c24)C3)C[C@@H]1CC#N [Compound 94, (S)-4-(4-acryloyl-3-(cyanomethyl)piperazin-1-yl)-N-(2-(aminomethyl)phenyl)-7-(8-methylnaphthalen-1-yl)-5,6,7,8-tetrahydro-1,7-naphthyridine-2-carboxamide]",12 nM,6630 nM,–
"C=C(F)C(=O)N1CCN(c2cc(C(=O)N[C@H](C)CN(C)C(C)C)nc3c2CCN(c2cccc4cccc(C)c24)C3)C[C@@H]1CC#N [Compound 79, 4-((S)-3-(cyanomethyl)-4-(2-fluoroacryloyl)piperazin-1-yl)-N-((R)-1-(isopropyl(methyl)amino)propan-2-yl)-7-(8-methylnaphthalen-1-yl)-5,6,7,8-tetrahydro-1,7-naphthyridine-2-carboxamide]",12 nM,1280 nM,–
"C=CC(=O)N1CCN(c2c(C)c(C(=O)N[C@H](C)CN(C)C)nc3c2CCN(c2cccc4cccc(C)c24)C3)C[C@@H]1CC#N (racemic) [Compound 85, 4-((S)-4-acryloyl-3-(cyanomethyl)piperazin-1-yl)-N—((R)-1-(dimethylamino)propan-2-yl)-3-methyl-7-(8-methylnaphthalen-1-yl)-5,6,7,8-tetrahydro-1,7-naphthyridine-2-carboxamide]",180 nM,3550 nM,–
"C=CC(=O)N1CCN(c2cc(C(=O)NC(CC)CN3CCCC3)nc3c2CCN(c2cccc4cccc(C)c24)C3)CC1 (racemic) [Compound 23, rac-4-(4-acryloylpiperazin-1-yl)-7-(8-methylnaphthalen-1-yl)-N-(1-(pyrrolidin-1-yl)butan-2-yl)-5,6,7,8-tetrahydro-1,7-naphthyridine-2-carboxamide]",90 nM,9770 nM,–
"C=CC(=O)N1CCN(c2cc(C(=O)NC(C)CN3CCC(C)(O)C3)nc3c2CCN(c2cccc4cccc(C)c24)C3)C[C@@H]1CC#N (single isomer, unassigned) [Compound 74, 4-((S)-4-acryloyl-3-(cyanomethyl)piperazin-1-yl)-N-((S or R)-1-((R or S)-3-hydroxy-3-methylpyrrolidin-1-yl)propan-2-yl)-7-(8-methylnaphthalen-1-yl)-5,6,7,8-tetrahydro-1,7-naphthyridine-2-carboxamide]",5.4 nM,–,45 nM
"C=CC(=O)N1CCN(c2cc(C(=O)NC(C)CN3CCC(F)(F)C3)nc3c2CCN(c2cccc4cccc(C)c24)C3)C[C@@H]1CC#N (single isomer, unassigned) [Compound 71, 4-((S)-4-acryloyl-3-(cyanomethyl)piperazin-1-yl)-N—((R or S)-1-(3,3-difluoropyrrolidin-1-yl)propan-2-yl)-7-(8-methylnaphthalen-1-yl)-5,6,7,8-tetrahydro-1,7-naphthyridine-2-carboxamide]",32 nM,–,5550 nM

# Second part, the compound after the results:
IC50 [1],"IC50 ([2]; Homo sapiens, NCI-H358, 2 h)",IC50 [2],SMILES
15 nM,5680 nM,–,"C=CC(=O)N1CCN(c2cc(C(=O)NCC3(N)CCCCC3)nc3c2CCN(c2cccc4cccc(C)c24)C3)C[C@@H]1CC#N [Compound 89, (S)-4-(4-acryloyl-3-(cyanomethyl)piperazin-1-yl)-N-((1-aminocyclohexyl)methyl)-7-(8-methylnaphthalen-1-yl)-5,6,7,8-tetrahydro-1,7-naphthyridine-2-carboxamide]"
15 nM,2480 nM,–,"C=CC(=O)N1CCN(c2cc(C(=O)NC[C@@H]3CCCN3)nc3c2CCN(c2cccc4cccc(C)c24)C3)C[C@@H]1CC#N [Compound 97, 4-((S)-4-acryloyl-3-(cyanomethyl)piperazin-1-yl)-7-(8-methylnaphthalen-1-yl)-N-(((S)-pyrrolidin-2-yl)methyl)-5,6,7,8-tetrahydro-1,7-naphthyridine-2-carboxamide]"
11 nM,1650 nM,–,"C=CC(=O)N1CCN(c2cc(C(=O)NC[C@H](C)N)nc3c2CCN(c2cccc4cccc(C)c24)C3)C[C@@H]1CC#N [Compound 86, 4-((S)-4-acryloyl-3-(cyanomethyl)piperazin-1-yl)-N—((S)-2-aminopropyl)-7-(8-methylnaphthalen-1-yl)-5,6,7,8-tetrahydro-1,7-naphthyridine-2-carboxamide]"
54 nM,7350 nM,–,"C=CC(=O)N1CCN(c2cc(C(=O)NC[C@]3(F)CCCNC3)nc3c2CCN(c2cccc4cccc(C)c24)C3)C[C@@H]1CC#N [Compound 107, 4-((S)-4-acryloyl-3-(cyanomethyl)piperazin-1-yl)-N-(((S)-3-fluoropiperidin-3-yl)methyl)-7-(8-methylnaphthalen-1-yl)-5,6,7,8-tetrahydro-1,7-naphthyridine-2-carboxamide]"
8.3 nM,1740 nM,–,"C=CC(=O)N1CCN(c2cc(C(=O)NCC3CCCCN3)nc3c2CCN(c2cccc4cccc(C)c24)C3)C[C@@H]1CC#N (mixture of isomers) [Compound 99, 4-((S)-4-acryloyl-3-(cyanomethyl)piperazin-1-yl)-7-(8-methylnaphthalen-1-yl)-N-(((R)-piperidin-2-yl)methyl)-5,6,7,8-tetrahydro-1,7-naphthyridine-2-carboxamide, as a mixture with 4-((S)-4-acryloyl-3-(cyanomethyl)piperazin-1-yl)-7-(8-methylnaphthalen-1-yl)-N-(((S)-piperidin-2-yl)methyl)-5,6,7,8-tetrahydro-1,7-naphthyridine-2-carboxamide]"
4.5 nM,1800 nM,–,"C=CC(=O)N1CCN(c2cc(C(=O)NC3(CC)CCNC3)nc3c2CCN(c2cccc4cccc(C)c24)C3)C[C@@H]1CC#N (mixture of isomers) [Compound 101, 4-((S)-4-acryloyl-3-(cyanomethyl)piperazin-1-yl)-N-((R)-3-ethylpyrrolidin-3-yl)-7-(8-methylnaphthalen-1-yl)-5,6,7,8-tetrahydro-1,7-naphthyridine-2-carboxamide, as a mixture with 4-((S)-4-acryloyl-3-(cyanomethyl)piperazin-1-yl)-N-((S)-3-ethylpyrrolidin-3-yl)-7-(8-methylnaphthalen-1-yl)-5,6,7,8-tetrahydro-1,7-naphthyridine-2-carboxamide]"
4.3 nM,1000 nM,–,"C=CC(=O)N1CCN(c2cc(C(=O)NC3(CN)CC3)nc3c2CCN(c2cccc4cccc(C)c24)C3)C[C@@H]1CC#N [Compound 88, (S)-4-(4-acryloyl-3-(cyanomethyl)piperazin-1-yl)-N-(1-(aminomethyl)cyclopropyl)-7-(8-methylnaphthalen-1-yl)-5,6,7,8-tetrahydro-1,7-naphthyridine-2-carboxamide]"
21 nM,2340 nM,–,"C=CC(=O)N1CCN(c2cc(C(=O)NCC3(N)CCOCC3)nc3c2CCN(c2cccc4cccc(C)c24)C3)C[C@@H]1CC#N [Compound 90, (S)-4-(4-acryloyl-3-(cyanomethyl)piperazin-1-yl)-N-((4-aminotetrahydro-2H-pyran-4-yl)methyl)-7-(8-methylnaphthalen-1-yl)-5,6,7,8-tetrahydro-1,7-naphthyridine-2-carboxamide]"

# Reference: US20220402916A1, “SMALL MOLECULE INHIBITORS OF KRAS G12C MUTANT” (Merck Sharp & Dohme Corp., priority 2019, published 2022)
